The test addresses CCR2 (Homo sapiens (Human), UniProt P41597). The experiment in a line: MCP-1 Receptor Binding Assay in THP-1 Cells.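 Further: THP-1 is a human monocytic cell line, and nonspecific binding was defined with 1 µM unlabeled MCP-1.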 The following applies: 0.5 nM 125I labeled MCP-1, 2 hours at 30° C., read-out: Inhibition of MCP-1 Binding IC50 MCP1B.
Sequence of CCR2 (P41597 whole entry): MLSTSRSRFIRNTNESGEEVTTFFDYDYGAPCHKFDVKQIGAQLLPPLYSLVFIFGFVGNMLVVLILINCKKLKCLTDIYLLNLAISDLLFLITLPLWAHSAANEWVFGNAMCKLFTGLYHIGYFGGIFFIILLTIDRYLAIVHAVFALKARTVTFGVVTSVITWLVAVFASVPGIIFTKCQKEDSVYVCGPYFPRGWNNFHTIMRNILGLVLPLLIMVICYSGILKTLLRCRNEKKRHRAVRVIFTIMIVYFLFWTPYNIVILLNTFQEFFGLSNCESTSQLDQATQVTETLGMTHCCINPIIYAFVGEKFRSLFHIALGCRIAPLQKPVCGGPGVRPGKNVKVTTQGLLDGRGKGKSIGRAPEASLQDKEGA
What is called IC50 is the point on the concentration scale where inhibition reaches its midpoint. On to `CN(C)CC(O)[C@H]1CC[C@@H](N2CC(NC(=O)CNc3ncnc4ccc(C(F)(F)F)cc34)C2)CC1` (stereo partly drawn) [Example 23, N-(1-((1S,4s)-4-(2-(dimethylamino)-1-hydroxyethyl)cyclohexyl)azetidin-3-yl)-2-((6-(trifluoromethyl)quinazolin-4-yl)amino)acetamide], for which the IC50 turned out to be 714 nM.

In the case of `O=C(CNc1cc(C(F)(F)F)nc2ccc(C(F)(F)F)cc12)NC1CN([C@H]2CC[C@@](O)(c3nccs3)CC2)C1` [Example 24, 2-((2,6-bis(trifluoromethyl)quinolin-4-yl)amino)-N-(1((1r-4r)-4-hydroxy-4-(thiazol-2-yl)cyclohexyl)azetidin-3-yl)acetamide], the IC50 is 28 nM.

Regarding `CCC(O)[C@H]1CC[C@@H](N2CC(NC(=O)CNc3cc(C(F)(F)F)nc4ccc(C(F)(F)F)cc34)C2)CC1` (some centres unmarked) [Example 25, 2-((2,6-bis(trifluoromethyl)quinolin-4-yl)amino)-N-(1((-1R,4s)-4-(1-hydroxypropyl)cyclohexyl)azetidin-3-yl)acetamide], the IC50 amounted to 99 nM.

As for `O=C(CNc1ccnc2ccc(C(F)(F)F)cc12)NC1CN([C@H]2CC[C@@](O)(c3nccs3)CC2)C1` [Example 27], the IC50 amounted to 17 nM.

With `O=C(CNc1ncnc2ccc(C(F)(F)F)cc12)NC1CN([C@H]2CC[C@@H](C3(O)CC=CC3)CC2)C1` [Example 28], the IC50 was found to be 23 nM.

For the compound `CC(C)(O)[C@H]1CC[C@@H](N2CC(NC(=O)CNc3ncnc4ccc(C(F)(F)F)cc34)C2)CC1` [Example 29, N-(1-((1s,4s)-4-(2-hydroxypropan-2-yl)cyclohexyl)azetidin-3-yl)-2-((6-(trifluoromethyl)quinazolin-4-yl)amino)acetamide], the IC50 was 33 nM.

Consider `CCC(O)(CC)[C@H]1CC[C@@H](N2CC(NC(=O)CNc3ncnc4ccc(C(F)(F)F)cc34)C2)CC1` [Example 30, N-(1-((1s,4s)-4-(3-hydroxypentan-3-yl)cyclohexyl)azetidin-3-yl)-2-((6-(trifluoromethyl)quinazolin-4-yl)amino)acetamide], for which the IC50 was 209 nM.

With `C=CCC(O)(CC=C)[C@H]1CC[C@@H](N2CC(NC(=O)CNc3ncnc4ccc(C(F)(F)F)cc34)C2)CC1` [Example 31, N-(1-((1s,4s)-4-(4-hydroxyhepta-1,6-dien-4-yl)cyclohexyl)azetidin-3-yl)-2-((6-(trifluoromethyl)quinazolin-4-yl)amino)acetamide], the IC50 is 300 nM.

Turning to `CCCC(O)(CCC)[C@H]1CC[C@@H](N2CC(NC(=O)CNc3ncnc4ccc(C(F)(F)F)cc34)C2)CC1` [Example 32, N-(1-((1s,4s)-4-(4-hydroxyheptan-4-yl)cyclohexyl)azetidin-3-yl)-2-((6-(trifluoromethyl)quinazolin-4-yl)amino)acetamide], the concentration for half-maximal inhibition (IC50) was 690 nM.

`O=C(CNc1ncnc2ccc(C(F)(F)F)cc12)NC1CN([C@H]2CC[C@@H](C3CCCC3)CC2)C1` [Example 33, N-(1-((1s,4s)-4-cyclopentylcyclohexyl)azetidin-3-yl)-2-((6-(trifluoromethyl)quinazolin-4-yl)amino)acetamide]: the 50% inhibitory concentration (IC50) is 140 nM.

With `O=C(CNc1ncnc2ccc(C(F)(F)F)cc12)NC1CN([C@H]2CC[C@@H](C(O)C(F)(F)F)CC2)C1` (stereo partly drawn) [Example 34, N-(1-((1R,4s)-4-(2,2,2-trifluoro-1-hydroxyethyl)cyclohexyl)azetidin-3-yl)-2-((6-(trifluoromethyl)quinazolin-4-yl)amino)acetamide], the IC50 is 73 nM.

As for `O=C(CNc1ncnc2ccc(C(F)(F)F)cc12)NC1CN([C@H]2CC[C@@H](C(O)C(F)(F)C(F)(F)C(F)(F)F)CC2)C1` (stereo partly drawn) [Example 35, N-(1-((1R,4s)-4-(2,2,3,3,4,4,4-heptafluoro-1-hydroxybutyl)cyclohexyl)azetidin-3-yl)-2-((6-(trifluoromethyl)quinazolin-4-yl)amino)acetamide], the half-inhibitory concentration (IC50) is 270 nM.

Turning to `C=C(C)[C@H]1CC[C@@H](N2CC(NC(=O)CNc3ncnc4ccc(C(F)(F)F)cc34)C2)CC1` [Example 36, N-(1-((1s,4s)-4-(prop-1-en-2-yl)cyclohexyl)azetidin-3-yl)-2-((6-(trifluoromethyl)quinazolin-4-yl)amino)acetamide], the IC50 was 75 nM.

`CC(C)[C@]1(O)CC[C@H](N2CC(NC(=O)CNc3ncnc4ccc(C(F)(F)F)cc34)C2)CC1` [Example 37, N-(1-((1r,4r)-4-hydroxy-4-isopropylcyclohexyl)azetidin-3-yl)-2-((6-(trifluoromethyl)quinazolin-4-yl)amino)acetamide]: the IC50 was determined as 235 nM.

For `O=C(CNc1ncnc2ccc(C(F)(F)F)cc12)NC1CN([C@H]2CC[C@@H](C3CCOCC3)CC2)C1` [Example 38, N-(1-((1s,4s)-4-(tetrahydro-2H-pyran-4-yl)cyclohexyl)azetidin-3-yl)-2-((6-(trifluoromethyl)quinazolin-4-yl)amino)acetamide], the concentration for half-maximal inhibition (IC50) stood at 160 nM.

As to `CN1C(=O)CCC1[C@H]1CC[C@@H](N2CC(NC(=O)CNc3ncnc4ccc(C(F)(F)F)cc34)C2)CC1` (stereo partly drawn) [Example 39, N-(1-((1S,4s)-4-(1-methyl-5-oxopyrrolidin-2-yl)cyclohexyl)azetidin-3-yl)-2-((6-(trifluoromethyl)quinazolin-4-yl)amino)acetamide], the IC50 is 231 nM.

With `O=C(CNc1ncnc2ccc(C(F)(F)F)cc12)NC1CN(C2CCC(N3CCCC3=O)CC2)C1` (centres unmarked) [Example 40, N-(1-(4-(2-oxopyrrolidin-1-yl)cyclohexyl)azetidin-3-yl)-2-((6-(trifluoromethyl)quinazolin-4-yl)amino)acetamide], the half-inhibitory concentration (IC50) came to 78 nM.

Consider `CC(=O)N[C@H]1CC[C@@H](N2CC(NC(=O)CNc3ncnc4ccc(C(F)(F)F)cc34)C2)CC1` [Example 41, N-(1-((1s,4s)-4-acetamidocyclohexyl)azetidin-3-yl)-2-((6-(trifluoromethyl)quinazolin-4-yl)amino)acetamide], for which the IC50 was determined as 670 nM.

For the compound `CN(C(=O)OCc1ccccc1)[C@H]1CC[C@@H](N2CC(NC(=O)CNc3ncnc4ccc(C(F)(F)F)cc34)C2)CC1` [Example 42], the half-maximal inhibitory concentration (IC50) came to 210 nM.

On to `CC(C)C(=O)N(C)[C@H]1CC[C@@H](N2CC(NC(=O)CNc3ncnc4ccc(C(F)(F)F)cc34)C2)CC1` [Example 43], for which the half-maximal inhibitory concentration (IC50) came out at 510 nM.

For `CC(=O)N(C)[C@H]1CC[C@@H](N2CC(NC(=O)CNc3ncnc4ccc(C(F)(F)F)cc34)C2)CC1` [Example 44], the IC50 was found to be 520 nM.

For `CCC(=O)N(C)[C@H]1CC[C@@H](N2CC(NC(=O)CNc3ncnc4ccc(C(F)(F)F)cc34)C2)CC1` [Example 45, N-Methyl-N-((1s,4s)-4-(3-(2-((6-(trifluoromethyl)quinazolin-4-yl)amino)acetamido)azetidin-1-yl)cyclohexyl)propionamide], the IC50 was 390 nM.

In the case of `CCCC(=O)N(C)[C@H]1CC[C@@H](N2CC(NC(=O)CNc3ncnc4ccc(C(F)(F)F)cc34)C2)CC1` [Example 46, N-methyl-N-((1s,4s)-4-(3-(2-((6-(trifluoromethyl)quinazolin-4-yl)amino)acetamido)azetidin-1-yl)cyclohexyl)butyramide], the IC50 was found to be 810 nM.

Regarding `CCN(C(=O)OCc1ccccc1)[C@H]1CC[C@@H](N2CC(NC(=O)CNc3ncnc4ccc(C(F)(F)F)cc34)C2)CC1` [Example 47, Benzyl ethyl((1s,4s)-4-(3-(2-((6-(trifluoromethyl)quinazolin-4-yl)amino)acetamido)azetidin-1-yl)cyclohexyl)carbamate], the IC50 was found to be 160 nM.

For `CCCN(C(=O)OCc1ccccc1)[C@H]1CC[C@@H](N2CC(NC(=O)CNc3ncnc4ccc(C(F)(F)F)cc34)C2)CC1` [Example 48, benzyl propyl((1s,4s)-4-(3-(2-((6-(trifluoromethyl)quinazolin-4-yl)amino)acetamido)azetidin-1-yl)cyclohexyl)carbamate], the concentration for half-maximal inhibition (IC50) was 300 nM.

As to `CN([C@H]1CC[C@@H](N2CC(NC(=O)CNc3ncnc4ccc(C(F)(F)F)cc34)C2)CC1)S(C)(=O)=O` [Example 49, N-(1-((1s,4s)-4-(N-methylmethylsulfonamido)cyclohexyl)azetidin-3-yl)-2-((6-(trifluoromethyl)quinazolin-4-yl)amino)acetamide], the half-inhibitory concentration (IC50) was 950 nM.

For `CCN(C(C)=O)[C@H]1CC[C@@H](N2CC(NC(=O)CNc3ncnc4ccc(C(F)(F)F)cc34)C2)CC1` [Example 50], the IC50 turned out to be 810 nM.

`CCCN(C=O)[C@H]1CC[C@@H](N2CC(NC(=O)CNc3ncnc4ccc(C(F)(F)F)cc34)C2)CC1` [Example 51, N-(1-((1s,4s)-4-(N-propylformamido)cyclohexyl)azetidin-3-yl)-2-((6-(trifluoromethyl)quinazolin-4-yl)amino)acetamide]: the IC50 came out at 37 nM.

In the case of `O=C(CNc1ncnc2ccc(C(F)(F)F)cc12)NC1CN([C@H]2CC[C@@H](N3CCCCO3)CC2)C1` [Example 52, N-(1-((1s,4s)-4-(1,2-oxazinan-2-yl)cyclohexyl)azetidin-3-yl)-2-((6-(trifluoromethyl)quinazolin-4-yl)amino)acetamide], the IC50 turned out to be 64 nM.

As to `O=C(CNc1ncnc2ccc(C(F)(F)F)cc12)NC1CN([C@H]2CC[C@@H](N3CCCO3)CC2)C1` [Example 53, N-(1-((1s,4s)-4-(isoxazolidin-2-yl)cyclohexyl)azetidin-3-yl)-2-((6-(trifluoromethyl)quinazolin-4-yl)amino)acetamide], the IC50 amounted to 350 nM.

Take `O=C(CNc1ncnc2ccc(C(F)(F)F)cc12)NC1CN([C@H]2CC[C@@H](CN3CCCCC3=O)CC2)C1` [Example 54, N-(1-((1s,4s)-4-((2-oxopiperidin-1-yl)methyl)cyclohexyl)azetidin-3-yl)-2-((6-(trifluoromethyl)quinazolin-4-yl)amino)acetamide]: the IC50 amounted to 720 nM.

As for `O=C(CNc1ncnc2ccc(C(F)(F)F)cc12)NC1CN([C@H]2CC[C@@H](n3ccccc3=O)CC2)C1` [Example 55, N-(1-((1s,4s)-4-(2-oxopyridin-1-(2H)-yl)cyclohexyl)azetidin-3-yl)-2-((6-(trifluoromethyl)quinazolin-4-yl)amino)acetamide], the IC50 came to 15 nM.

(Values after US9062048B2, “Cyclohexyl-azetidinyl antagonists of CCR2” (Janssen Pharmaceutica NV, priority 2010, dated 2015).)
